Laboratory results as given in publication PMC7031696 (Cell chemical biology, 2019).
pIC50: −log10 of the molar value. Read-outs that look alike come from different tables or passages of the source.

Tests used:
[1] = system: 3D7-MR4 trophozoite parasite-infected RBCs; assay: Metabolomic profiling (hydrophilic metabolite changes, UHPLC-MS); assay type: cell-based, Plasmodium falciparum
[2] = system: Plasmodium falciparum 3D7-A10 parasites; assay: Stage specificity assay (8-h exposure of synchronized stages, IC50^8h); assay type: cell-based; conditions: for pIC50: Plasmodium falciparum
[3] = system: asynchronous 3D7-A10 parasite cultures; assay: Standard 72-h exposure asexual blood stage susceptibility assay (IC50^72h); assay type: cell-based, Plasmodium falciparum; conditions: Plasmodium falciparum, 3D7, 72 h, read-out: Overall (72hr assay) Mean IC50 (IC50^72h)

FC(F)(F)c1ccc(Nc2cc3[nH]c(-c4cccc(C(F)(F)F)c4)nc3cn2)nc1 [MMV675939]
changes within the set of metabolites detected (low fold change group) ([1]; 10 × IC50^72h, 2.5 hr, trophozoites): did not induce major changes | Log2(fold changes) 3-phosphoglycerate ([1]; metabolite 3-phosphoglycerate, log2 fold change): -0.0740 | Log2(fold changes) 4-Pyridoxic acid ([1]; metabolite 4-Pyridoxic acid, log2 fold change): 0.0934 | Log2(fold changes) 4-aminobutyrate ([1]; metabolite 4-aminobutyrate, log2 fold change): -0.0838 | Log2(fold changes) 4-phosphopantetheine ([1]; metabolite 4-phosphopantetheine, log2 fold change): 0.0000 | Log2(fold changes) 4-phosphopantothenate ([1]; metabolite 4-phosphopantothenate, log2 fold change): -0.1644 | Log2(fold changes) 5-aminopentanoic acid ([1]; metabolite 5-aminopentanoic acid, log2 fold change): 0.0000 | Log2(fold changes) 5-methyl-THF ([1]; metabolite 5-methyl-THF, log2 fold change): 0.0000 | Log2(fold changes) 5-phosphoribosyl-1-pyrophosphate ([1]; metabolite 5-phosphoribosyl-1-pyrophosphate, log2 fold change): 0.0000 | Log2(fold changes) 6-phospho-D-gluconate ([1]; metabolite 6-phospho-D-gluconate, log2 fold change): -0.0601 | Log2(fold change) HVDD ([1]; metabolite HVDD): 0.0907 | Log2(fold change) Hydroxyisocaproic acid ([1]; metabolite Hydroxyisocaproic acid): 0.0000 | Log2(fold change) IDP ([1]; metabolite IDP): 0.0000 | Log2(fold change) IMP ([1]; metabolite IMP): -0.0368 | Log2(fold change) Inositol ([1]; metabolite Inositol): 0.0000 | Log2(fold change) Isopentyl-PP ([1]; metabolite Isopentyl-PP): -0.3198 | Log2(fold change) L-arginino-succinate ([1]; metabolite L-arginino-succinate): 0.0258 | Log2(fold change) LD ([1]; metabolite LD): 0.2379 | Log2(fold change) Myristoyl/tetradecanoyl-CoA ([1]; metabolite Myristoyl/tetradecanoyl-CoA): 0.0000 | Log2(fold change) N-Acetyl-L-alanine ([1]; metabolite N-Acetyl-L-alanine): 0.0194 | Log2(fold change) N-acetyl-L-ornithine ([1]; metabolite N-acetyl-L-ornithine): -0.1313 | Log2(fold change) N-acetyl-glucosamine-1/6-phosphate ([1]; metabolite N-acetyl-glucosamine-1/6-phosphate): -0.1343 | Log2(fold change) N-acetyl-glutamate ([1]; metabolite N-acetyl-glutamate): -0.1472 | Log2(fold change) N-acetyl-glutamine ([1]; metabolite N-acetyl-glutamine): 0.0192 | Log2(fold change) N-carbamoyl-L-aspartate ([1]; metabolite N-carbamoyl-L-aspartate): -0.1451 | Log2(fold change) NAD+ ([1]; metabolite NAD+): -0.0175 | Log2(fold change) NADH ([1]; metabolite NADH): -0.2763 | Log2(fold change) NADP+ ([1]; metabolite NADP+): 0.0809 | Log2(fold change) NADPH ([1]; metabolite NADPH): -0.4301 | Log2(fold change) O-acetyl-L-serine ([1]; metabolite O-acetyl-L-serine): -0.0735 | Log2(fold change) Octoluse 8/1P ([1]; metabolite Octoluse 8/1P): -0.1460 | Log2(fold change) Octoluse Bisphosphate ([1]; metabolite Octoluse Bisphosphate): -0.0903 | Log2(fold change) PD ([1]; metabolite PD): -0.0797 | Log2(fold change) PE ([1]; metabolite PE): -0.0211 | Log2(fold change) PEE ([1]; metabolite PEE): 0.0917 | Log2(fold change) PEEK ([1]; metabolite PEEK): 0.1721 | Log2(fold change) PVNF ([1]; metabolite PVNF): 0.1648 | Log2(fold change) Pyroglutamic acid ([1]; metabolite Pyroglutamic acid): -0.1915 | Log2(fold change) Pyrophosphate ([1]; metabolite Pyrophosphate): 0.0000 | Log2(fold change) Ribose-5-phosphate ([1]; metabolite Ribose-5-phosphate): -0.1384 | Log2(fold change) S-adenosyl-L-homocysteine ([1]; metabolite S-adenosyl-L-homocysteine): 0.0407 | Log2(fold change) S-adenosyl-L-methioninamine ([1]; metabolite S-adenosyl-L-methioninamine): -0.3534 | Log2(fold change) S-adenosyl-L-methionine ([1]; metabolite S-adenosyl-L-methionine): 0.0000 | Log2(fold change) S-methyl-5'-thioadenosine ([1]; metabolite S-methyl-5'-thioadenosine): 0.0820 | Log2(fold change) SD ([1]; metabolite SD): -0.1003 | Log2(fold change) SDL ([1]; metabolite SDL): 0.0000 | Log2(fold change) SID ([1]; metabolite SID): 0.1202 | Log2(fold change) Sedoheptulose bisphosphate ([1]; metabolite Sedoheptulose bisphosphate): -0.2322 | Log2(fold change) Thiamine pyrophosphate ([1]; metabolite Thiamine pyrophosphate): 0.0281 | Log2(fold changes) UDP-D-glucose ([1]; metabolite UDP-D-glucose, log2 fold change): -0.0394 | Log2(fold changes) UDP-D-glucuronate ([1]; metabolite UDP-D-glucuronate, log2 fold change): -0.0296 | Log2(fold changes) UDP-N-acetyl-glucosamine ([1]; metabolite UDP-N-acetyl-glucosamine, log2 fold change): -0.1021 | Log2(fold changes) UDP ([1]; metabolite UDP, log2 fold change): -0.2552 | Log2(fold changes) UMP ([1]; metabolite UMP, log2 fold change): -0.1084 | Log2(fold changes) UTP ([1]; metabolite UTP, log2 fold change): 0.0000 | Log2(fold change) hydroxyphenylpyruvate ([1]; metabolite hydroxyphenylpyruvate): 0.0000 | Log2(fold change) hydroxyproline/Aminolevulinate ([1]; metabolite hydroxyproline/Aminolevulinate): -0.1121 | Log2(fold change) hypoxanthine ([1]; metabolite hypoxanthine): -0.1075 | Log2(fold change) indole ([1]; metabolite indole): 0.0000 | Log2(fold change) inosine ([1]; metabolite inosine): 0.0076 | Log2(fold change) isoleucine ([1]; metabolite isoleucine): 0.0000 | Log2(fold change) lactate ([1]; metabolite lactate): -0.1204 | Log2(fold change) leucine ([1]; metabolite leucine): 0.0000 | Log2(fold change) lysine ([1]; metabolite lysine): -0.3554 | Log2(fold change) malate ([1]; metabolite malate): -0.1053 | Log2(fold change) maleic acid ([1]; metabolite maleic acid): -0.1158 | Log2(fold change) methionine ([1]; metabolite methionine): -0.0422 | Log2(fold change) myo-inositol ([1]; metabolite myo-inositol): -0.1497 | Log2(fold change) nicotinamide mononucleotide ([1]; metabolite nicotinamide mononucleotide): 0.0424 | Log2(fold change) nicotinate ([1]; metabolite nicotinate): -0.2143 | Log2(fold change) ornithine ([1]; metabolite ornithine): 0.2780 | Log2(fold change) orotate ([1]; metabolite orotate): -0.3359 | Log2(fold change) orotidine-5'-phosphate ([1]; metabolite orotidine-5'-phosphate): -0.1978 | Log2(fold change) oxaloacetate ([1]; metabolite oxaloacetate): -0.2404 | Log2(fold change) p-aminobenzoate ([1]; metabolite p-aminobenzoate): 0.0000 | Log2(fold change) p-hydroxybenzoate ([1]; metabolite p-hydroxybenzoate): 0.0000 | Log2(fold change) pantothenate ([1]; metabolite pantothenate): -0.0579 | Log2(fold change) phenylalanine ([1]; metabolite phenylalanine): -0.1115 | Log2(fold change) phenylpyruvate ([1]; metabolite phenylpyruvate): 0.0000 | Log2(fold change) phosphoenolpyruvate ([1]; metabolite phosphoenolpyruvate): 0.0011 | Log2(fold change) prephenate ([1]; metabolite prephenate): -0.0728 | Log2(fold change) proline ([1]; metabolite proline): -0.1132 | Log2(fold change) pyridoxine ([1]; metabolite pyridoxine): 0.1122 | Log2(fold change) pyruvate ([1]; metabolite pyruvate): -0.1845 | Log2(fold change) riboflavin ([1]; metabolite riboflavin): 0.2197 | Log2(fold change) ribose ([1]; metabolite ribose): -0.0488 | Log2(fold change) ribose-phosphate ([1]; metabolite ribose-phosphate): -0.3090 | Log2(fold change) ribulose-5-phosphate ([1]; metabolite ribulose-5-phosphate): -0.1779 | Log2(fold change) serine ([1]; metabolite serine): -0.0132 | Log2(fold change) sn-glycerol-3-phosphate ([1]; metabolite sn-glycerol-3-phosphate): -0.0322 | Log2(fold change) succinate/Methylmalonic acid ([1]; metabolite succinate/Methylmalonic acid): 0.0214 | Log2(fold change) succinyl-CoA/methylmalonyl-CoA ([1]; metabolite succinyl-CoA/methylmalonyl-CoA): 0.0000 | Log2(fold change) taurine ([1]; metabolite taurine): -0.5626 | Log2(fold change) thiamine ([1]; metabolite thiamine): -0.2223 | Log2(fold change) threonine/homoserine ([1]; metabolite threonine/homoserine): -0.0861 | Log2(fold change) thymidine ([1]; metabolite thymidine): 0.0000 | Log2(fold changes) thymine ([1]; metabolite thymine, log2 fold change): 0.0000 | Log2(fold changes) trehalose-6-Phosphate ([1]; metabolite trehalose-6-Phosphate, log2 fold change): 0.0000 | Log2(fold changes) tryptophan ([1]; metabolite tryptophan, log2 fold change): -0.3649 | Log2(fold changes) tyrosine ([1]; metabolite tyrosine, log2 fold change): -0.0724 | Log2(fold changes) uridine ([1]; metabolite uridine, log2 fold change): 0.0000 | Ratio lowest IC50 8hr/IC50 72hr ([2]; 3D7-A10): 2.0 | pIC50 ([2]; 3D7, read-out: Early rings Mean IC50 (IC50^8h), 8-h exposure 0–8 hr, 3D7-A10, survival at 60 h): 5.93 | pIC50 ([2]; 3D7, read-out: Early trophozoites Mean IC50 (IC50^8h), 8-h exposure 16–24 hr, 3D7-A10, survival at 60 h): 7.20 | pIC50 ([2]; 3D7, read-out: Late rings Mean IC50 (IC50^8h), 8-h exposure 8–16 hr, 3D7-A10, survival at 60 h): 6.57 | pIC50 ([2]; 3D7, read-out: Late trophozoites Mean IC50 (IC50^8h), 8-h exposure 24–32 hr, 3D7-A10, survival at 60 h): 6.84 | pIC50 ([2]; 3D7, read-out: Schizonts Mean IC50 (IC50^8h), 8-h exposure 32–40 hr, 3D7-A10, survival at 60 h): 5.78 | IC50^8h relative to IC50^72h value ([2]; most susceptible stages): 2 fold | Stage of peak activity (Figure 6) ([2]; period when the parasite was most susceptible (lowest IC50^8h)): early and late trophozoites | Peak Activity (Table S1) ([2]; stage(s) with the lowest IC50^8h): Trophs | pIC50 [3]: 7.51
